The results in this text go back to PubChem BioAssay (NCI).

Each structure is given as a SMILES string.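 48-hour exposure; five concentrations; linearly interpolated endpoints. GI50 = concentration required for 50% inhibition of growth. At the TGI there is no net growth.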

Some test systems named below: 786-0 renal; A498 renal; DU-145 prostate; HCT-15 colon; MCF7 breast; MOLT-4 leukemia; NCI/ADR-RES ovarian; OVCAR-3 ovarian; SF-295 CNS; U251 CNS.
Common to all, as to assay: NCI tumour cell line growth inhibition, 48 h

Take `COc1cc2oc3c(c(=O)c2c(O)c1/C=C/C(C)C)C(C=C(C)C)Oc1cc(O)ccc1-3` (stereo not given): the TGI in the experiment with 786-0 renal came to 30.6 µM; in the experiment with A498 renal it was 40.3 µM; in the experiment on DU-145 prostate, 30.2 µM; in the experiment on HCT-15 colon, 31.7 µM; in the experiment with MCF7 breast it was 28.6 µM; with MOLT-4 leukemia, 25.8 µM. The TGI in the experiment on NCI/ADR-RES ovarian came to 31.1 µM; in the experiment with OVCAR-3 ovarian it was 28.4 µM; in the experiment with SF-295 CNS, 31.4 µM; in the experiment on U251 CNS, 31.1 µM.
In the case of `Cc1cccc2c3c(sc12)C(c1ccc(F)cc1)C(C#N)=C(N)O3` (stereo not given), the GI50 with 786-0 renal is 0.297 µM; in the experiment with A498 renal, 0.0192 µM; with DU-145 prostate, 0.151 µM; in the experiment with HCT-15 colon, 0.0447 µM; with MCF7 breast, 0.0332 µM; in the experiment with MOLT-4 leukemia it was 0.137 µM. For the same molecule, the GI50 was 0.0446 µM with NCI/ADR-RES ovarian, 0.0401 µM in the experiment on OVCAR-3 ovarian, 0.0284 µM in the experiment with SF-295 CNS and 0.13 µM in the experiment on U251 CNS. Further, the TGI in the experiment with 786-0 renal stood at 14.2 µM; with A498 renal it was 0.318 µM; in the experiment with DU-145 prostate it was 13 µM; in the experiment on HCT-15 colon it was 10.7 µM; in the experiment with MCF7 breast, 11.1 µM; with MOLT-4 leukemia, 26.6 µM. Besides, the TGI in the experiment on NCI/ADR-RES ovarian worked out at 4.14 µM; in the experiment on OVCAR-3 ovarian, 1.85 µM; with SF-295 CNS it was 0.329 µM; in the experiment on U251 CNS, 12.6 µM.
Regarding `COCCOCCOCc1n(Cc2ccc3ccccc3n2)c2ccccc2[n+]1Cc1ccc2ccccc2n1`, the GI50 in the experiment with 786-0 renal is 3.74 µM; in the experiment with A498 renal it was 2.48 µM; in the experiment on DU-145 prostate, 2.67 µM; with HCT-15 colon it was 15.8 µM; in the experiment on MCF7 breast, 0.369 µM; with MOLT-4 leukemia, 1.88 µM. For the same molecule, the GI50 is greater than 100 µM in the experiment on NCI/ADR-RES ovarian, 0.479 µM in the experiment with OVCAR-3 ovarian, 1.69 µM in the experiment on SF-295 CNS and 0.354 µM in the experiment on U251 CNS. In addition, the TGI came to 15.5 µM in the experiment on 786-0 renal; 7.74 µM with A498 renal; 41.8 µM in the experiment with DU-145 prostate; 52 µM with HCT-15 colon; 11.1 µM in the experiment on MCF7 breast; 13 µM in the experiment on MOLT-4 leukemia. The TGI with NCI/ADR-RES ovarian is greater than 100 µM; in the experiment on OVCAR-3 ovarian, 13.8 µM; with SF-295 CNS, 8.19 µM; in the experiment on U251 CNS, 12.9 µM.
For the molecule `Cc1cc(O)c(C2=NN(c3ccc(S(N)(=O)=O)cc3)C(/C=C/c3ccccc3)C2)cc1Cl` (stereo not given), the GI50 in the experiment on 786-0 renal was 4.09 µM; with A498 renal it was 14.9 µM; in the experiment on DU-145 prostate, 14.1 µM; in the experiment on HCT-15 colon it was 18.9 µM; with MCF7 breast it was 3.93 µM; in the experiment on MOLT-4 leukemia, 17.7 µM. Also, the GI50 in the experiment on NCI/ADR-RES ovarian was 9.26 µM; in the experiment on OVCAR-3 ovarian it was 11.5 µM; in the experiment on SF-295 CNS, 2.36 µM; in the experiment with U251 CNS it was 3.79 µM. The TGI was 12.5 µM with 786-0 renal; 42.4 µM with A498 renal; 38.6 µM in the experiment with DU-145 prostate; greater than 100 µM with HCT-15 colon; 16.1 µM in the experiment on MCF7 breast; 73.7 µM with MOLT-4 leukemia. Besides, the TGI with NCI/ADR-RES ovarian was determined as 22.7 µM; in the experiment on OVCAR-3 ovarian, 28.4 µM; with SF-295 CNS, 11.9 µM; in the experiment on U251 CNS, 15.6 µM.
For `NC(=O)c1sc(-n2cnc3cc(C(F)(F)F)ccc32)cc1OCc1ccccc1Br`, the GI50 in the experiment with 786-0 renal was 18.4 µM; in the experiment with A498 renal, greater than 25 µM; with DU-145 prostate, greater than 25 µM; in the experiment on HCT-15 colon, greater than 25 µM; with MCF7 breast, greater than 13.4 µM; with MOLT-4 leukemia, greater than 25 µM. Besides, the GI50 in the experiment with NCI/ADR-RES ovarian is greater than 17.4 µM; in the experiment on OVCAR-3 ovarian it was greater than 16.7 µM; in the experiment on SF-295 CNS it was greater than 25 µM; with U251 CNS, greater than 15.8 µM. Also, the TGI in the experiment with 786-0 renal, in the experiment with A498 renal, with DU-145 prostate, in the experiment with HCT-15 colon, in the experiment with MCF7 breast and with MOLT-4 leukemia was greater than 25 µM each time. The TGI with NCI/ADR-RES ovarian, in the experiment on OVCAR-3 ovarian, in the experiment on SF-295 CNS and in the experiment on U251 CNS was greater than 25 µM each time.
For `COc1ccc(CCN2CCC(CN(C)Cc3cnn(-c4ccccc4)c3)CC2)cc1`, the GI50 was 12 µM in the experiment on 786-0 renal; 1.58 µM in the experiment on A498 renal; 37 µM with DU-145 prostate; 4.49 µM in the experiment on HCT-15 colon; 13.9 µM in the experiment with MCF7 breast; 12.8 µM in the experiment with MOLT-4 leukemia. Further, the GI50 in the experiment on NCI/ADR-RES ovarian is 26.7 µM; in the experiment with OVCAR-3 ovarian, 20.4 µM; in the experiment with SF-295 CNS it was 12.1 µM; with U251 CNS, 13 µM. The TGI was 24.6 µM in the experiment on 786-0 renal; 7.78 µM in the experiment on A498 renal; greater than 100 µM with DU-145 prostate; 18.5 µM in the experiment on HCT-15 colon; 28.2 µM in the experiment on MCF7 breast; 66.7 µM in the experiment with MOLT-4 leukemia. For the same molecule, the TGI with NCI/ADR-RES ovarian was greater than 100 µM; in the experiment with OVCAR-3 ovarian, 52.4 µM; with SF-295 CNS, 25.2 µM; in the experiment on U251 CNS, 27 µM.
With `O=C1N(Cc2ccccc2Cl)c2ccccc2C12NN=C(c1cccc(Cl)c1)S2` (stereo not given), the GI50 in the experiment on 786-0 renal is 1.72 µM; with A498 renal it was 1.54 µM; in the experiment with DU-145 prostate, 1.7 µM; with HCT-15 colon, 1.9 µM; with MCF7 breast it was 1.75 µM; in the experiment with MOLT-4 leukemia, 2.04 µM. The GI50 was 1.78 µM in the experiment with NCI/ADR-RES ovarian, 1.83 µM in the experiment with OVCAR-3 ovarian, 1.71 µM with SF-295 CNS and 1.77 µM in the experiment with U251 CNS. Moreover, the TGI with 786-0 renal is 3.12 µM; in the experiment on A498 renal, 2.95 µM; in the experiment on DU-145 prostate, 3.26 µM; with HCT-15 colon it was 4.19 µM; in the experiment with MCF7 breast, 3.37 µM; in the experiment with MOLT-4 leukemia, 4.64 µM. In addition, the TGI in the experiment on NCI/ADR-RES ovarian amounted to 4.14 µM; in the experiment with OVCAR-3 ovarian, 3.43 µM; with SF-295 CNS it was 3.17 µM; in the experiment on U251 CNS, 3.15 µM.
Turning to `O=Cc1ccc(-c2ccc(-c3nc4ccccc4s3)cc2)s1`, the GI50 is 51.7 µM in the experiment with 786-0 renal; greater than 100 µM with A498 renal; 73 µM in the experiment with DU-145 prostate; 39.8 µM with HCT-15 colon; 48.1 µM in the experiment on MCF7 breast; 51.5 µM with MOLT-4 leukemia. Further, the GI50 with NCI/ADR-RES ovarian was 40.8 µM; with OVCAR-3 ovarian, 27.2 µM; in the experiment with SF-295 CNS, 40.7 µM; with U251 CNS, 51.9 µM. Moreover, the TGI in the experiment with 786-0 renal, in the experiment with A498 renal, in the experiment on DU-145 prostate, with HCT-15 colon, with MCF7 breast and in the experiment with MOLT-4 leukemia was greater than 100 µM in each case. Moreover, the TGI in the experiment with NCI/ADR-RES ovarian was greater than 100 µM; with OVCAR-3 ovarian, 98.3 µM; in the experiment with SF-295 CNS it was greater than 100 µM; in the experiment on U251 CNS, greater than 100 µM.
